The molecule `*C(=O)c1ccc(Oc2ccc(C3(c4ccc(Oc5ccc(C(=O)c6ccc7c(c6)C(=O)N(c6ccc(Cc8ccc(N9C(=O)c%10ccc(*)cc%10C9=O)cc8)cc6)C7=O)cc5)cc4)OC(=O)c4ccccc43)cc2)cc1` (repeat unit) gave a glass transition temperature of 268.00 °C.
Molecule `*C(=O)c1ccc2nc(-c3ccc(-c4nc5ccc(*)cc5nc4-c4ccccc4)cc3)c(-c3ccccc3)nc2c1` (repeat unit) returned a glass transition temperature of 325.00 °C.
For the molecule `*C(=O)c1ccc2nc(-c3ccccc3)c(-c3ccc(N4C(=O)c5ccc(C(=O)c6ccc7c(c6)C(=O)N(c6ccc(-c8nc9cc(*)ccc9nc8-c8ccccc8)cc6)C7=O)cc5C4=O)cc3)nc2c1` (repeat unit), the glass transition temperature stood at 255.00 °C.
`*CCCCCCNC(=O)/C=C(\C)C(=O)N*` (repeat unit) displayed a glass transition temperature of 94.00 °C.
Turning to `*Oc1ccc(/C(=N/c2ccc(/N=C(\c3ccccc3)c3ccc(Oc4ccc(C(C)(C)c5ccc(*)cc5)cc4)cc3)cc2)c2ccccc2)cc1` (repeat unit), the glass transition temperature amounted to 161.00 °C.
The molecule `*Oc1ccc(/C=N/c2ccc(/N=C/c3ccc(Oc4ccc(C(c5ccccc5)(c5ccccc5)c5ccc(*)cc5)cc4)cc3)cc2)cc1` (repeat unit) gave a glass transition temperature of 230.00 °C.
Consider `*Oc1ccc(/N=C/c2ccc(Oc3ccc(C(C)(C)c4ccc(Oc5ccc(/C=N/c6ccc(Oc7ccc(-c8ccc(*)cc8)cc7)cc6)cc5)cc4)cc3)cc2)cc1` (repeat unit), for which the glass transition temperature came out at 120.00 °C.
The value for `*Oc1ccc(/N=C/c2ccc(Oc3ccc(C(c4ccc(Oc5ccc(/C=N/c6ccc(Oc7ccc(-c8ccc(*)cc8)cc7)cc6)cc5)cc4)(C(F)(F)F)C(F)(F)F)cc3)cc2)cc1` (repeat unit) was 128.00 °C; that for `*Oc1ccc(/N=C/c2ccc(Oc3ccc(C(c4ccccc4)(c4ccccc4)c4ccc(Oc5ccc(/C=N/c6ccc(*)cc6)cc5)cc4)cc3)cc2)cc1` (repeat unit) was 211.00 °C.
Then `*Oc1ccc(/N=N/c2ccc(Oc3ccc(C(C)(C)c4ccc(*)cc4)cc3)cc2)cc1` (repeat unit), with 175.00 °C; and `*Oc1ccc(C(C)(C)c2ccc(Oc3ccc(C(=O)Nc4ccc(-c5ccc(NC(=O)c6ccc(*)cc6)cc5C(F)(F)F)c(C(F)(F)F)c4)cc3)cc2)cc1` (repeat unit), with 250.00 °C.
In turn, `*Oc1ccc(C(C)(C)c2ccc(Oc3ccc(C(=O)Nc4cccc(NC(=O)c5ccc(*)cc5)c4)cc3)cc2)cc1` (repeat unit) had a glass transition temperature of 214.00 °C.
The molecule `*Oc1ccc(C(C)(C)c2ccc(Oc3ccc(C(=O)c4c(C(=O)c5ccc(*)cc5)c(-c5ccc(F)cc5)c(-c5ccc(F)cc5)c(-c5ccc(F)cc5)c4-c4ccc(F)cc4)cc3)cc2)cc1` (repeat unit) displayed a glass transition temperature of 252.00 °C.
Then `*Oc1ccc(C(C)(C)c2ccc(Oc3ccc(C(=O)c4ccc(-c5ccc(C(=O)c6ccc(*)cc6)cc5)cc4)cc3)cc2)cc1` (repeat unit), with 186.00 °C; and `*Oc1ccc(C(C)(C)c2ccc(Oc3ccc(C(=O)c4ccc(C(=O)c5ccc(*)c(C(F)(F)F)c5)cc4)cc3C(F)(F)F)cc2)cc1` (repeat unit), with 171.00 °C; and `*Oc1ccc(C(C)(C)c2ccc(Oc3ccc(C(=O)c4ccc(C(C)(C)c5ccc(C(=O)c6ccc(*)cc6)cc5)cc4)cc3)cc2)cc1` (repeat unit), with 171.00 °C.
Consider `*Oc1ccc(C(C)(C)c2ccc(Oc3ccc(C(=O)c4ccc(Oc5ccc(C(=O)c6ccc(*)cc6)cc5)cc4)cc3)cc2)cc1` (repeat unit), for which the glass transition temperature amounted to 162.00 °C.
As to `*Oc1ccc(C(C)(C)c2ccc(Oc3ccc(C(=O)c4ccc(P(=O)(c5ccccc5)c5ccc(C(=O)c6ccc(*)cc6)cc5)cc4)cc3)cc2)cc1` (repeat unit), the glass transition temperature was found to be 195.00 °C.
`*Oc1ccc(C(C)(C)c2ccc(Oc3ccc(C(=O)c4ccc5cc(C(=O)c6ccc(*)cc6)ccc5c4)cc3)cc2)cc1` (repeat unit) had a glass transition temperature of 185.00 °C.
The value for `*Oc1ccc(C(C)(C)c2ccc(Oc3ccc(C(O)C(O)c4ccc(*)cc4)cc3)cc2)cc1` (repeat unit) was 151.00 °C; that for `*Oc1ccc(C(C)(C)c2cccc(C(C)(C)c3ccc(Oc4ccc(C(=O)Nc5ccc(NC(=O)c6ccc(*)cc6)cc5)cc4)cc3)c2)cc1` (repeat unit) was 154.00 °C.
`*Oc1ccc(C2(c3ccc(Oc4ccc(C(=O)c5ccc(*)cc5)cc4)c(C)c3)CCC3CCCCC3C2)cc1C` (repeat unit) yielded a glass transition temperature of 201.00 °C.
Then `*Oc1ccc(NC(=O)c2ccc(Oc3ccc(C(C)(C)c4ccc(C(C)(C)c5ccc(Oc6ccc(C(=O)Nc7ccc(*)cc7)cc6)cc5)cc4)cc3)cc2)cc1` (repeat unit), with 174.00 °C; and `*Oc1ccc(NC(=O)c2ccc(Oc3ccc(C(C)(C)c4ccc(C(C)(C)c5ccc(Oc6ccc(C(=O)Nc7ccc(Oc8ccc(-c9ccc(*)cc9)cc8)cc7)cc6)cc5)cc4)cc3)cc2)cc1` (repeat unit), with 177.00 °C.
`*Oc1ccc(NC(=O)c2ccc(Oc3ccc(C(C)(C)c4cccc(C(C)(C)c5ccc(Oc6ccc(C(=O)Nc7ccc(Oc8ccc(-c9ccc(*)cc9)cc8)cc7)cc6)cc5)c4)cc3)cc2)cc1` (repeat unit): the glass transition temperature came to 167.00 °C.
`*Oc1ccc(Oc2ccc(NC(=O)c3ccc(Oc4ccc(C(C)(C)c5ccc(C(C)(C)c6ccc(Oc7ccc(C(=O)Nc8ccc(*)cc8)cc7)cc6)cc5)cc4)cc3)cc2)cc1` (repeat unit): the glass transition temperature was 165.00 °C.
As to `*Oc1ccc(P(C)(=O)c2ccc(Oc3ccc(C(c4ccc(*)cc4)(C(F)(F)F)C(F)(F)F)cc3)cc2)cc1` (repeat unit), the glass transition temperature amounted to 208.00 °C.
Then `*Oc1ccc(P(C)(=O)c2ccc(Oc3ccc(C(c4ccccc4)(c4ccc(*)cc4)C(F)(F)F)cc3)cc2)cc1` (repeat unit), with 229.00 °C.
Then `*Oc1ccc(S(=O)(=O)c2ccc(Oc3ccc(/C=C/c4ccc(*)cc4)cc3)cc2)cc1` (repeat unit), with 234.50 °C.
On to `*Oc1ccc(S(=O)(=O)c2ccc(Oc3ccc(/C=N/N=C/c4ccc(*)cc4)cc3)cc2)cc1` (repeat unit), for which the glass transition temperature is 151.00 °C.
As to `*Oc1ccc(S(=O)(=O)c2ccc(Oc3ccc(/C=N/c4ccc(Oc5ccc(-c6ccc(Oc7ccc(/N=C/c8ccc(*)cc8)cc7)cc6)cc5)cc4)cc3)cc2)cc1` (repeat unit), the glass transition temperature came out at 127.00 °C.
`*Oc1ccc(S(=O)(=O)c2ccc(Oc3ccc(/N=C/c4ccc(*)cc4)cc3)cc2)cc1` (repeat unit) yielded a glass transition temperature of 110.00 °C.
On to `*Oc1ccc(S(=O)(=O)c2ccc(Oc3ccc(NC(=O)c4ccc(Oc5ccc(C(C)(C)c6cccc(C(C)(C)c7ccc(Oc8ccc(C(=O)Nc9ccc(*)cc9)cc8)cc7)c6)cc5)cc4)cc3)cc2)cc1` (repeat unit), for which the glass transition temperature was 167.00 °C.
Molecule `*Oc1ccc(S(=O)c2ccc(Oc3ccc(/C=N/N=C/c4ccc(*)cc4)cc3)cc2)cc1` (repeat unit) yielded a glass transition temperature of 151.00 °C.
In turn, `*Oc1cccc(NC(=O)c2ccc(Oc3ccc(C(C)(C)c4cccc(C(C)(C)c5ccc(Oc6ccc(C(=O)Nc7ccc(*)cc7)cc6)cc5)c4)cc3)cc2)c1` (repeat unit) came in with a glass transition temperature of 147.00 °C.
In the case of `*Oc1cccc2ccc(Oc3ccc(NC(=O)c4ccc(Oc5ccc(C(C)(C)c6cccc(C(C)(C)c7ccc(Oc8ccc(C(=O)Nc9ccc(*)cc9)cc8)cc7)c6)cc5)cc4)cc3)cc12` (repeat unit), the glass transition temperature was 139.00 °C.
The value for `*c1ccc(Oc2ccc(-n3nc(-c4ccccc4)cc3-c3ccc(-c4cc(-c5ccccc5)nn4*)cc3)cc2)cc1` (repeat unit) was 260.00 °C; that for `*c1ccc(Oc2ccc(-n3nccc3-c3ccc(-c4ccnn4*)cc3)cc2)cc1` (repeat unit) was 243.00 °C.
`*c1ccc(Oc2ccc(C(=O)c3ccc(Oc4ccc(C5(*)c6ccccc6C(=O)N5C)cc4)cc3)cc2)cc1` (repeat unit) showed a glass transition temperature of 245.00 °C.
The value for `*c1ccc(Oc2ccc(C(=O)c3cccc(C(=O)c4ccc(Oc5ccc(-c6c7c(c(*)c8ccccc68)C(=O)N(CCCCCCCCCCCC)C7=O)cc5)cc4)c3)cc2)cc1` (repeat unit) was 140.00 °C.
As for `*c1ccc(Oc2ccc(C(C)(C)c3cccc(C(C)(C)c4ccc(Oc5ccc(-n6c(=O)c7cc8c(=O)n(*)c(=O)c8cc7c6=O)cc5)cc4)c3)cc2)cc1` (repeat unit), the glass transition temperature is 249.47 °C.
In turn, `*c1ccc(Oc2ccc(C(C)(C)c3ccccc3)cc2)c(N2C(=O)c3ccc(-c4ccc5c(c4)C(=O)N(*)C5=O)cc3C2=O)c1` (repeat unit) registered a glass transition temperature of 275.00 °C.
Consider `*c1ccc(Oc2ccc(C(c3ccc(Oc4ccc(-c5ncc(*)o5)cc4C(F)(F)F)cc3)(C(F)(F)F)C(F)(F)F)cc2)c(C(F)(F)F)c1` (repeat unit), for which the glass transition temperature worked out at 205.00 °C.
In turn, `*c1ccc(Oc2ccc(C(c3ccc(Oc4ccc(-c5nnc(*)n5-c5cccc(C(F)(F)F)c5)cc4)cc3)(C(F)(F)F)C(F)(F)F)cc2)cc1` (repeat unit) gave a glass transition temperature of 185.00 °C.
Turning to `*c1ccc(Oc2ccc(C(c3ccc(Oc4ccc(-n5c(=O)c6cc7c(=O)n(*)c(=O)c7cc6c5=O)cc4C(F)(F)F)cc3)(C(F)(F)F)C(F)(F)F)cc2)c(C(F)(F)F)c1` (repeat unit), the glass transition temperature is 253.00 °C.
The value for `*c1ccc(Oc2ccc(C(c3ccccc3)(c3ccccc3)c3ccc(Oc4ccc(-c5nc(*)nc(-c6ccccc6)n5)cc4)cc3)cc2)cc1` (repeat unit) was 261.00 °C.
Turning to `*c1ccc(Oc2ccc(C3(c4ccc(Oc5ccc(-c6cccc(*)n6)cc5C(F)(F)F)cc4)c4ccccc4-c4ccccc43)cc2)c(C(F)(F)F)c1` (repeat unit), the glass transition temperature was found to be 182.50 °C.
In turn, `*c1ccc(Oc2ccc(C3(c4ccc(Oc5ccc(-c6nnc(*)c7c(-c8ccc(F)cc8)c(-c8ccc(F)cc8)c(-c8ccc(F)cc8)c(-c8ccc(F)cc8)c67)cc5)cc4)c4ccccc4-c4ccccc43)cc2)cc1` (repeat unit) yielded a glass transition temperature of 321.00 °C.

(Values after the PolyMetriX glass transition set.)
